In experiment [1] the test system is L1210. In words: Median survival time at a compound dose of 25 mg/kg, in mice bearing L1210 cells on days 1 and 5. The class given is functional, Mus musculus.
In experiment [2] the test system is L1210. Kind of experiment: Ratio of the median survival time (treated(T) versus control(C)) at a dose of 25 mg/kg, on days 1 and 5. The class given is functional, Mus musculus.
For experiment [3], the system named is L1210. In words: Median survival time at a compound dose of 75 mg/kg, in mice bearing L1210 cells on days 1 and 5. The class given is functional, Mus musculus.
A short description of experiment [4]: The number of mice survived to that of total at a dose of 75 mg/kg on 30th day; 0/5. The class given is functional.
Experiment [5] concerns L1210. In words: Median survival time at a compound dose of 50 mg/kg, in mice bearing L1210 cells on days 1 and 5. The class given is functional, Mus musculus.
Experiment [6] deals with L1210. In words: Ratio of the median survival time (treated(T) versus control(C)) at a dose of 75 mg/kg on days 1 and 5. Format: functional, Mus musculus.
In experiment [7] the test system is L1210. Kind of experiment: Median survival time when no dose was administered in mice bearing L1210 cells on days 1 and 5. The class given is functional, Mus musculus.
In experiment [8] the test system is L1210. In words: (§1) Ratio of the median survival time (treated(T) versus control(C)) at a dose of 50 mg/kg, on days 1 and 5. The class given is functional, Mus musculus.
A short description of experiment [9]: The number of mice survived to that of total at a dose of 50 mg/kg on 30th day; 0/5. The class given is functional.
A short description of experiment [10]: The number of mice survived to that of total at a dose of 25 mg/kg on 30th day; 0/5. Format: functional.
For experiment [11], the system named is L1210. Kind of experiment: In vitro inhibitory concentration required for 50% inhibition of L1210 cell growth. The class given is functional. Conditions: Mus musculus, read-out: ID50 (the source's name).
The nature of experiment [12]: The number of mice survived to that of total at a dose of 100 mg/kg on 30th day; 0/5. Format: functional, organism-based. More on the design: dose 100 mg/kg.
Experiment [13] deals with L1210. In words: Median survival time at a compound dose of 800 mg/kg (administered on days 1 & 5) in mice bearing L1210 cells. The class given is functional, organism-based. More on the design: dose 800 mg/kg. Conditions: Mus musculus.
Experiment [14] has as its system L1210. Kind of experiment: Ratio of the median survival time (treated(T) versus control(C)) at a dose of 100x2 mg/kgxdays, on days 1 and 5. The class given is functional, organism-based. The conditions noted are these: Mus musculus.
Experiment [15] deals with L1210. Kind of experiment: Ratio of the median survival time (treated(T) versus control(C)) at a dose of 400 mg/kg, on days 1 and 5. Details: dose 400 mg/kg. The conditions noted are these: Mus musculus. Format: functional, organism-based.
In experiment [16] the test system is L1210. Kind of experiment: (§2) Median survival time at a compound dose of 100 mg/kg, in mice bearing L1210 cells on days 1 and 5. The class given is functional. The conditions noted are these: Mus musculus.
A short description of experiment [17]: The number of mice survived to that of total when no compound dose was given on 30th day. Format: functional.
In experiment [18] the test system is L1210. Kind of experiment: Median survival time at a compound dose of 400 mg/kg, in mice bearing L1210 cells on days 1 and 5. Conditions: Mus musculus. More on the design: dose 400 mg/kg. Format: functional, organism-based.
Experiment [19] has as its system L1210. Kind of experiment: Ratio of the median survival time (treated(T) versus control(C)) at a dose of 800 mg/kg, on days 1 and 5. The class given is functional, organism-based. More on the design: dose 800 mg/kg. Conditions: Mus musculus.
Experiment [20] can be described thus: The number of mice survived to that of total at a dose of 400 mg/kg on 30th day; 0/5. The class given is functional, organism-based. Details: dose 400 mg/kg.
The nature of experiment [21]: The number of mice survived to that of total at a dose of 800 mg/kg on 30th day; 0/5. The class given is functional, organism-based. More on the design: dose 800 mg/kg.
Experiment [22] has as its system L1210. In words: Ratio of the median survival time (treated(T) versus control(C)) at a dose of 50x2 mg/kgxdays, on days 1 and 5. The conditions noted are these: Mus musculus. Format: functional, organism-based.
The subject of experiment [23] is L1210. In words: Effect dose of 50 mg/kg on day 3, before L1210 cell transplantation in mice. The class given is functional, Mus musculus.
The test system of experiment [24] is L1210. Kind of experiment: (§3) Ratio of the median survival time (treated(T) versus control(C)) at a dose of 100 mg/kg, on days 1 and 5. Format: functional, Mus musculus.
The nature of experiment [25]: The number of mice survived to that of total at a dose of 50 mg/kg on 30th day; 1/5. The class given is functional.
The nature of experiment [26]: The number of mice survived to that of total at a dose of 100 mg/kg on 30th day; 3/5. Format: functional.
Experiment [27] has as its system L1210. The description is as §2. The class given is functional, Mus musculus.
Experiment [28] in a line: The number of mice survived to that of total at a dose of 50 mg/Kg on 30th day. Format: functional.
In experiment [29] the test system is L1210. In words: Median survival time at a compound dose of 25 mg/Kg, in mice bearing L1210 cells on days 1 and 5. Format: functional, Mus musculus.
Experiment [30] in a line: The number of mice survived to that of total at a dose of 25 mg/Kg on 30th day: 4/5. Format: functional.
Experiment [31] deals with L1210. Kind of experiment: Median survival time at a compound dose of 200 mg/kg, in mice bearing L1210 cells on days 1 and 5; Toxic. Format: functional, organism-based. More on the design: dose 200 mg/kg. Conditions: Mus musculus.
Experiment [32] deals with Mus musculus. Kind of experiment: Ratio of the median survival time (treated(T) versus control(C)) at a dose of 25 mg/Kg on days 1 and 5. Format: functional.
Experiment [33] is described as follows: The number of mice survived to that of total at a dose of 100 mg/kg on 30th day. The class given is functional.
Experiment [34] has as its system Mus musculus. The description is as §1. The class given is functional.
Experiment [35] has as its system Mus musculus. The experiment is described as §3. The class given is functional.

For orientation: T/C means the ratio of treated to control. For `Nc1nc([SeH])c2ncn(C3O[C@H](CO)[C@H](O)[C@@H]3O)c2n1` (stereo partly drawn), the Median survival time with L1210 [1] worked out at 15 days; in the experiment on L1210 [3], 13 days; in the experiment with L1210 [5], 13 days; in the experiment with L1210 [7], 9 days. For the same molecule, the T/C with L1210 [2] worked out at 166.7%; with L1210 [6] it was 144.4%; in the experiment with L1210 [8] it was 144.4%. For the same molecule, the Ratio in experiment [4], in [9] and in [10] was 0 each time.
`O=c1[nH]c(=S)c2nc[nH]c2[nH]1`: in the experiment on L1210 [11], the IC50 came to 10.6 µM.
In the case of “2-(2-Amino-6-selanyl-purin-9-yl)-5-hydroxymethyl-tetrahydro-furan-3,4-diol platinum complex”, the Ratio in experiment [12], in [17], in experiment [9], in [20] and in [21] was 0 each time. Moreover, the Median survival time in the experiment on L1210 [13] is 14 days; in the experiment with L1210 [16] it was 11 days; in the experiment on L1210 [18] it was 12 days; in the experiment on L1210 [5] (Mus musculus), 12 days; with L1210 [7] (Mus musculus) it was 9 days. In addition, the T/C in the experiment with L1210 [14] turned out to be 111%; with L1210 [15], 133%; with L1210 [19], 156%; in the experiment on L1210 [22] it was 133%.
Turning to `Nc1nc([SeH])c2[nH]cnc2n1`, the T/C is on record as 100% in the experiment on L1210 [23], more than 300% in the experiment with L1210 [24] and 200% with L1210 [8]. Further, the Ratio in experiment [17] is 0; in experiment [25], 1; in experiment [26], 3. Also, in the experiment on L1210 [11], the IC50 stood at 0.00416 µM. The Median survival time in the experiment on L1210 [5] was 18 days; with L1210 [7], 9 days; in the experiment on L1210 [27], more than 30 days.
Consider `Nc1nc2[nH]cnc2c(=S)[nH]1` [THIOGUANINE], for which the Ratio came to 0 in experiment [28], 0 in experiment [17], 4 in [30] and 0 in experiment [33]. Moreover, the Median survival time is more than 30 days in the experiment with L1210 [29]; 12 days in the experiment with L1210 [5]; “Toxic” in the experiment with L1210 [31]; 10 days in the experiment on L1210 [7]; 10 days in the experiment with L1210 [27]. In addition, the T/C in the experiment with L1210 [23] is recorded as 111%; in the experiment with Mus musculus [32], more than 300%; with Mus musculus [34], 120%; with Mus musculus [35] it was 100%.

The record behind these values is ChEMBL document CHEMBL1121878, “Synthesis of seleno- and thioguanine-platinum(II) complexes and their antitumor activity in mice” (1981).
